Assay: Encapsulation efficiency by 1H NMR analysis of nanoparticles
Type: physicochemical
Conditions: DMF internal standard, DMSO-d6, agent within the nanoparticle delivery system
Experimental: For the ^1H NMR analysis, the nanoparticle suspension was centrifuged at 3214 rcf for 30 min. The supernatant was decanted. DMF was added to the precipitate as the internal reference for ^1H NMR analysis and weighed the amount added. DMSO-d6, was added and heated to 60° C. to dissolve the sample. The ^1H NMR was performed at 60° C.

encapsulation efficiency	SMILES
19%	CCCCCCCC/C=C\CCCCCCCC(=O)O [oleic acid]
42.7%	CCC(=O)OC/C=C(C)/C=C/C=C(C)/C=C/C1=C(C)CCCC1(C)C [vitamin A-propionate, retinyl propionate]

Reference: patent US20230017661A1, “COMPOSITIONS AND MODULAR NANO- AND MICROPARTICLES FOR THE DELIVERY OF VARIOUS AGENTS AND USE THEREOF” (Veri Nano Inc., priority 2019, published 2023)
